The values below come from patent US20260356819A1, “OXOISOINDOLINYL-SUBSTITUTED […] DERIVATIVE AND USE THEREOF” (GLUETACS THERAPEUTICS (SHANGHAI) CO., LTD., priority 2023, published 2026).

Holding throughout (assay type): cell-based
What all share (details): compounds at 50 nM and 500 nM

One test concerns the target T1, CK1α (Homo sapiens, UniProt P48729+Q96SW2).
T1 construct: The supernatant was aspirated as the extracted total cell protein; endogenous in cells; host or cells: human peripheral blood mononuclear cells (hPBMCs)
As to the kind of experiment: Western blot degradation of CK1α in hPBMCs (24 h). The method in brief:
(§1)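 Read-out is Western blot band grayscale, divided by internal control band and normalised to give percent target protein remaining; degradation rate is 1 minus that value. Cells were human PBMCs exposed to compound at 50 nM and 500 nM for 24 hours.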

In the next test the target is T2, WEE1 (Homo sapiens, UniProt P30291+Q96SW2).
T2 construct: The supernatant was aspirated as the extracted total cell protein; endogenous in cells; host or cells: human peripheral blood mononuclear cells (hPBMCs)
As to the kind of experiment: Western blot degradation of WEE1 in hPBMCs (24 h). The method in brief: as §1
(A western blot detects proteins with antibodies after separation by electrophoresis.)

In the next test the target is T3, IKZF3 (Homo sapiens, UniProt Q96SW2+Q9UKT9).
T3 construct: The supernatant was aspirated as the extracted total cell protein; endogenous in cells; host or cells: human peripheral blood mononuclear cells (hPBMCs)
As to the kind of experiment: Western blot degradation of IKZF3 in hPBMCs (24 h). An outline of the steps: as §1

The next test concerns the target T4, IKZF2 (Homo sapiens, UniProt Q96SW2+Q9UKS7).
T4 construct: The supernatant was aspirated as the extracted total cell protein; endogenous in cells; host or cells: human peripheral blood mononuclear cells (hPBMCs)
As to the kind of experiment: Western blot degradation of IKZF2 in hPBMCs (24 h). The method in brief:
as §1

A further test deals with T5, GSPT1 (Homo sapiens, UniProt P15170+Q96SW2).
T5 construct: The supernatant was aspirated as the extracted total cell protein; endogenous in cells; host or cells: human peripheral blood mononuclear cells (hPBMCs)
As to the kind of experiment: Western blot degradation of GSPT1 in hPBMCs (24 h). The method in brief:
as §1

The target in the next test is T6, IKZF1 (Homo sapiens, UniProt Q13422+Q96SW2).
T6 construct: The supernatant was aspirated as the extracted total cell protein; endogenous in cells; host or cells: human peripheral blood mononuclear cells (hPBMCs)
As to the kind of experiment: Western blot degradation of IKZF1 in hPBMCs (24 h). An outline of the steps:
as §1

T2 sequence (P30291 whole entry): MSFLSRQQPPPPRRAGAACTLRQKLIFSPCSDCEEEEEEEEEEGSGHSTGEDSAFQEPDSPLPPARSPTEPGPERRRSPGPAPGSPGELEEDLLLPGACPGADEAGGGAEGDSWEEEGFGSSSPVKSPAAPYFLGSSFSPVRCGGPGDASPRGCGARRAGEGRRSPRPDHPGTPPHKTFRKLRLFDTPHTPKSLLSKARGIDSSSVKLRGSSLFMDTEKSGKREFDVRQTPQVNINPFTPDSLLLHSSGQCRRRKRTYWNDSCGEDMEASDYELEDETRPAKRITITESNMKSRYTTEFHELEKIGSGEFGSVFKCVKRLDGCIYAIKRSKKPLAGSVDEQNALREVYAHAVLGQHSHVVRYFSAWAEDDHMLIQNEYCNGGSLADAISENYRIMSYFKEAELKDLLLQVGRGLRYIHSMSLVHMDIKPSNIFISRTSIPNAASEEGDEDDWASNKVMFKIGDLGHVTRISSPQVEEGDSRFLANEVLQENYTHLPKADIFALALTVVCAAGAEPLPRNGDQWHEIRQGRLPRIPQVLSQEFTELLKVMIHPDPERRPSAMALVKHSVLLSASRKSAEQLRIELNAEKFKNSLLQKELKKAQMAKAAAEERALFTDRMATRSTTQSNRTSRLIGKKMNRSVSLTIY
T2 sequence (Q96SW2 whole entry): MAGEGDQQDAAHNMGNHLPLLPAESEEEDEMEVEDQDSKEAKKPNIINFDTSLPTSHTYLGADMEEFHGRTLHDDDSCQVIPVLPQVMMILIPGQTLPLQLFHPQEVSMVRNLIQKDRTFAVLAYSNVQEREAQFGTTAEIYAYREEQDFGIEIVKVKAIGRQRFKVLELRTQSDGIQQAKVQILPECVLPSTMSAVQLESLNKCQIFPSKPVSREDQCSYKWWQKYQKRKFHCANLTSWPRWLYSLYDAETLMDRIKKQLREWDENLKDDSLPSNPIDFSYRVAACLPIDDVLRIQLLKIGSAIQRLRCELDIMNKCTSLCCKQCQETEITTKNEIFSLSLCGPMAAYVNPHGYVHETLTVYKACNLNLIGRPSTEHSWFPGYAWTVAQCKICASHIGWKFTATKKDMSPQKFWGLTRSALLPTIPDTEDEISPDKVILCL
T2 sequence (Q16531 whole entry partner): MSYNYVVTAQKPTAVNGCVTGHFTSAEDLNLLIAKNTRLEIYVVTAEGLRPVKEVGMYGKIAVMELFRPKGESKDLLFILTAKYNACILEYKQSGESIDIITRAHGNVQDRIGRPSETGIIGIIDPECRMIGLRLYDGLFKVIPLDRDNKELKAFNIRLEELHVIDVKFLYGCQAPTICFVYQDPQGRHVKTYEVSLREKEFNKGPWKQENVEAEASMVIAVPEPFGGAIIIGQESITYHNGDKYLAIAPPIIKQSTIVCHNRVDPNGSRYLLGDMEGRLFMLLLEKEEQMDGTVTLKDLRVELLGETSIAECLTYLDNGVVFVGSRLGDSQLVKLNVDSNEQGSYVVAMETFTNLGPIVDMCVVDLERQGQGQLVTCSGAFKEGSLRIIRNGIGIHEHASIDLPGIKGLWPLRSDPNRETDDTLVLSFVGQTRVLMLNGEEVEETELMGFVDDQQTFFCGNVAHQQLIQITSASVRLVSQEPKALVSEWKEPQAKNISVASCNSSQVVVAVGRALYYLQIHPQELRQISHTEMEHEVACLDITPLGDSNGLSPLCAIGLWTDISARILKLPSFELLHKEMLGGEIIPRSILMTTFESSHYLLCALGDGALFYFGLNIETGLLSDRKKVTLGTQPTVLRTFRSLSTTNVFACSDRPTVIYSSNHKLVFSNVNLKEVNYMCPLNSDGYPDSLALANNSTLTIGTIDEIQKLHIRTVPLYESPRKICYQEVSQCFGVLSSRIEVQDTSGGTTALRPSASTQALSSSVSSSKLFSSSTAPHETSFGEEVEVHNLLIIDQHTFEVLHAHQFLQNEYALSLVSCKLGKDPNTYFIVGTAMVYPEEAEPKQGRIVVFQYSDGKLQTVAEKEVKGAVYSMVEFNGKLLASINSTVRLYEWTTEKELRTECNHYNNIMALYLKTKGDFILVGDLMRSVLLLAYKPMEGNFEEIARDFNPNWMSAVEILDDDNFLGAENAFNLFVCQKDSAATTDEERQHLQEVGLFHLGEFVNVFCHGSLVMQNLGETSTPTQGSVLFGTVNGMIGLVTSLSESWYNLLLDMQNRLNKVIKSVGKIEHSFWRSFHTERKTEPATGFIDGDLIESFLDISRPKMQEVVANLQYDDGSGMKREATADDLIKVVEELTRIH
T3 sequence (Q9UKT9 whole entry): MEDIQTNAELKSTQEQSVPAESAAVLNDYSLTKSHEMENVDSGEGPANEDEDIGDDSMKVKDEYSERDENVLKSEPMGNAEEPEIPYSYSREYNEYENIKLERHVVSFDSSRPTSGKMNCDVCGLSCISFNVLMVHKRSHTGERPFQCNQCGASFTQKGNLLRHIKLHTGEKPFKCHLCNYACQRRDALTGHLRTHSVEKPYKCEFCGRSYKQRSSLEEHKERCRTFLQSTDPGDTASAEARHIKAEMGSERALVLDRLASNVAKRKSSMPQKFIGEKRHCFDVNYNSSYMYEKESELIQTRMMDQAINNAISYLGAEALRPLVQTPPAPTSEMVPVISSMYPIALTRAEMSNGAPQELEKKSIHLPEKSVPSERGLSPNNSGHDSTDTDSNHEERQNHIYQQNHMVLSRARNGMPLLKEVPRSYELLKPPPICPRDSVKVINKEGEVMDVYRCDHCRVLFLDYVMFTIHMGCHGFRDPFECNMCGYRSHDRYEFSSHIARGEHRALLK
T3 sequence (Q96SW2 whole entry): as the sequence (Q96SW2 whole entry) above
T3 sequence (Q16531 whole entry partner): as the sequence (Q16531 whole entry partner) above
T4 sequence (Q9UKS7 whole entry): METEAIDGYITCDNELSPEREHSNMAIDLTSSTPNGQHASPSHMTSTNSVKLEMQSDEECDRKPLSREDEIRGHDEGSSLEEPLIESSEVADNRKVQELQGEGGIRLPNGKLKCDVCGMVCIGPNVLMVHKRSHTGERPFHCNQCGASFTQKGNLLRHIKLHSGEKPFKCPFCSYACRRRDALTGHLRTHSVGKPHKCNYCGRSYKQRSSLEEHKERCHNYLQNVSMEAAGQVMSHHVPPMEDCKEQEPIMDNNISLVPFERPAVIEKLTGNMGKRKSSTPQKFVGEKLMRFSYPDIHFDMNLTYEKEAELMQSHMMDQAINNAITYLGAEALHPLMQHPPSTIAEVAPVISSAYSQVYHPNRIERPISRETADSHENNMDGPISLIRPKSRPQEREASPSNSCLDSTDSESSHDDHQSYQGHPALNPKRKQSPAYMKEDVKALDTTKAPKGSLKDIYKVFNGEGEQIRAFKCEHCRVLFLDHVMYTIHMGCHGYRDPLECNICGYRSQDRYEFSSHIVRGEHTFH
T4 sequence (Q96SW2 whole entry): as the sequence (Q96SW2 whole entry) above
T4 sequence (Q16531 whole entry partner): as the sequence (Q16531 whole entry partner) above
T5 sequence (P15170 whole entry): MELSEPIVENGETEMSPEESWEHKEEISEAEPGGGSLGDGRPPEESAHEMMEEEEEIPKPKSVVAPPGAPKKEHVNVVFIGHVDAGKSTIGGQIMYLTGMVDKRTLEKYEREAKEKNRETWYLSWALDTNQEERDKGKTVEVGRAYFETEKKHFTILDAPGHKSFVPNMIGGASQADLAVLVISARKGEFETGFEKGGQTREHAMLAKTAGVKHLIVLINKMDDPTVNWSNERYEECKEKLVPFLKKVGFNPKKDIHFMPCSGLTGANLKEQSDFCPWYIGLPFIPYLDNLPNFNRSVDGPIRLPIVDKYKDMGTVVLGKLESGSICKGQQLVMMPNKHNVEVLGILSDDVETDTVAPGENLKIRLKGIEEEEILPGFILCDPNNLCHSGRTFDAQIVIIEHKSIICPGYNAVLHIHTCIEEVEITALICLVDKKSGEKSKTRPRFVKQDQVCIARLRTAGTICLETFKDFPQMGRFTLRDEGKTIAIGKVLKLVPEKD
T5 sequence (Q96SW2 whole entry): as the sequence (Q96SW2 whole entry) above
T5 sequence (Q16531 whole entry partner): as the sequence (Q16531 whole entry partner) above
T6 sequence (Q13422 whole entry): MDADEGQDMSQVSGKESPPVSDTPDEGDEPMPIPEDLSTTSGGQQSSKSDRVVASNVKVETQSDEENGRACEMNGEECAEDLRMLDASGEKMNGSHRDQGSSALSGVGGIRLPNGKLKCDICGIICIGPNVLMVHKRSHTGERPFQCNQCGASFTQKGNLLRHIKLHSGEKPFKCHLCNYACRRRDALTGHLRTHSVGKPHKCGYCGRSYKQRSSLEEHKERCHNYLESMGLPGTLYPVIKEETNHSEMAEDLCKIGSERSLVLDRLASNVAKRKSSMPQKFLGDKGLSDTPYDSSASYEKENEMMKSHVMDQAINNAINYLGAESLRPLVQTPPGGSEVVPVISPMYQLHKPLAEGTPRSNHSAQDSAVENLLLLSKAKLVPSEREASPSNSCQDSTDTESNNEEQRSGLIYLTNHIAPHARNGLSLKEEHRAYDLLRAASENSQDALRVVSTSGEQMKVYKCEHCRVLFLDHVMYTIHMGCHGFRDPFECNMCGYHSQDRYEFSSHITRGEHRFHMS
T6 sequence (Q96SW2 whole entry): as the sequence (Q96SW2 whole entry) above
T6 sequence (Q16531 whole entry partner): as the sequence (Q16531 whole entry partner) above

Consider `O=C1CCN(N2Cc3cc(CN4CCN(c5ncnc6sccc56)CC4)ccc3C2=O)C(=O)N1` [GT-08057, 1-(1-oxo-5-((4-(thieno[2,3-d]pyrimidin-4-yl)piperazin-1-yl)methyl)isoindolin-2-yl)dihydropyrimidine-2,4(1H,3H)-dione], for which, at CK1α, the “CK1α substrate protein remaining %” value is reported as “B (80%< substrate protein remaining % ≤100%)”. At WEE1, the “WEE1 substrate protein remaining %” value is “B (80%< substrate protein remaining % ≤100%)”. On IKZF3, the “IKZF3 substrate protein remaining %” value was “B (80%< substrate protein remaining % ≤100%)”. Besides, the “IKZF2 substrate protein remaining %” value at IKZF2 is reported as “B (80%< substrate protein remaining % ≤100%)”. Further, at GSPT1, the “GSPT1 substrate protein remaining %” value is “A (0% ≤ substrate protein remaining % ≤80%)”. The “IKZF1 substrate protein remaining %” value at IKZF1 was “A (0% ≤ substrate protein remaining % ≤80%)”.
Regarding `Cc1csc2ncnc(N3CCN(Cc4ccc5c(c4)CN(N4CCC(=O)NC4=O)C5=O)CC3)c12` [GT-08058, 1-(5-((4-(5-methylthieno[2,3-d]pyrimidin-4-yl)piperazin-1-yl)methyl)-1-oxoisoindolin-2-yl)dihydropyrimidine-2,4(1H,3H)-dione], the “CK1α substrate protein remaining %” value on CK1α is listed as “B (80%< substrate protein remaining % ≤100%)”. Also, the “WEE1 substrate protein remaining %” value at WEE1 is listed as “B (80%< substrate protein remaining % ≤100%)”. Moreover, the “IKZF3 substrate protein remaining %” value at IKZF3 was “B (80%< substrate protein remaining % ≤100%)”. In addition, the “IKZF2 substrate protein remaining %” value on IKZF2 is “B (80%< substrate protein remaining % ≤100%)”. Further, the “GSPT1 substrate protein remaining %” value at GSPT1 is “B (80%< substrate protein remaining % ≤100%)”. For the same compound, on IKZF1, the “IKZF1 substrate protein remaining %” value was “A (0% ≤ substrate protein remaining % ≤80%)”.
In the case of `Cc1cc2c(N3CCN(Cc4ccc5c(c4)CN(N4CCC(=O)NC4=O)C5=O)CC3)ncnc2s1` [GT-08059, 1-(5-((4-(6-methylthieno[2,3-d]pyrimidin-4-yl)piperazin-1-yl)methyl)-1-oxoisoindolin-2-yl)dihydropyrimidine-2,4(1H,3H)-dione], the “CK1α substrate protein remaining %” value on CK1α was “B (80%< substrate protein remaining % ≤100%)”. In addition, the “WEE1 substrate protein remaining %” value at WEE1 is listed as “B (80%< substrate protein remaining % ≤100%)”. The “IKZF3 substrate protein remaining %” value on IKZF3 was “A (0% ≤ substrate protein remaining % ≤80%)”. Moreover, the “IKZF2 substrate protein remaining %” value on IKZF2 is given as “B (80%< substrate protein remaining % ≤100%)”. For the same compound, the “GSPT1 substrate protein remaining %” value at GSPT1 is “B (80%< substrate protein remaining % ≤100%)”. The “IKZF1 substrate protein remaining %” value at IKZF1 is “B (80%< substrate protein remaining % ≤100%)”.
With `CC(C)c1cc2c(N3CCN(Cc4ccc5c(c4)CN(N4CCC(=O)NC4=O)C5=O)CC3)ncnc2s1` [GT-08060, 1-(5-((4-(6-isopropylthieno[2,3-d]pyrimidin-4-yl)piperazin-1-yl)methyl)-1-oxoisoindolin-2-yl)dihydropyrimidine-2,4(1H,3H)-dione], the “CK1α substrate protein remaining %” value on CK1α was “B (80%< substrate protein remaining % ≤100%)”. Moreover, the “WEE1 substrate protein remaining %” value at WEE1 is “B (80%< substrate protein remaining % ≤100%)”. For the same compound, the “IKZF3 substrate protein remaining %” value on IKZF3 was “A (0% ≤ substrate protein remaining % ≤80%)”. For the same compound, on IKZF2, the “IKZF2 substrate protein remaining %” value is reported as “A (0% ≤ substrate protein remaining % ≤80%)”. Further, the “GSPT1 substrate protein remaining %” value at GSPT1 is recorded as “B (80%< substrate protein remaining % ≤100%)”. The “IKZF1 substrate protein remaining %” value on IKZF1 is given as “B (80%< substrate protein remaining % ≤100%)”.
With `Cc1sc2ncnc(N3CCN(Cc4ccc5c(c4)CN(N4CCC(=O)NC4=O)C5=O)CC3)c2c1C` [GT-08061, 1-(5-((4-(5,6-dimethylthieno[2,3-d]pyrimidin-4-yl)piperazin-1-yl)methyl)-1-oxoisoindolin-2-yl)dihydropyrimidine-2,4(1H,3H)-dione], the “CK1α substrate protein remaining %” value on CK1α is recorded as “B (80%< substrate protein remaining % ≤100%)”. For the same compound, on WEE1, the “WEE1 substrate protein remaining %” value is recorded as “B (80%< substrate protein remaining % ≤100%)”. Further, at IKZF3, the “IKZF3 substrate protein remaining %” value is “A (0% ≤ substrate protein remaining % ≤80%)”. Besides, the “IKZF2 substrate protein remaining %” value on IKZF2 is listed as “A (0% ≤ substrate protein remaining % ≤80%)”. Further, on GSPT1, the “GSPT1 substrate protein remaining %” value is given as “B (80%< substrate protein remaining % ≤100%)”. In addition, at IKZF1, the “IKZF1 substrate protein remaining %” value was “B (80%< substrate protein remaining % ≤100%)”.
On to `Cc1sc2ncnc(N3CCCN(Cc4ccc5c(c4)CN(N4CCC(=O)NC4=O)C5=O)CC3)c2c1C` [GT-08062, 1-(5-((4-(5,6-dimethylthieno[2,3-d]pyrimidin-4-yl)-1,4-diazepan-1-yl)methyl)-1-oxoisoindolin-2-yl)dihydropyrimidine-2,4(1H,3H)-dione], for which the “CK1α substrate protein remaining %” value on CK1α was “B (80%< substrate protein remaining % ≤100%)”. Moreover, the “WEE1 substrate protein remaining %” value at WEE1 is “B (80%< substrate protein remaining % ≤100%)”. At IKZF3, the “IKZF3 substrate protein remaining %” value is “A (0% ≤ substrate protein remaining % ≤80%)”. Also, the “IKZF2 substrate protein remaining %” value on IKZF2 is reported as “A (0% ≤ substrate protein remaining % ≤80%)”. Besides, the “GSPT1 substrate protein remaining %” value at GSPT1 is on record as “B (80%< substrate protein remaining % ≤100%)”. Also, the “IKZF1 substrate protein remaining %” value at IKZF1 is “B (80%< substrate protein remaining % ≤100%)”.
`O=C1CCN(N2Cc3cc(CN4CCN(c5ncnc6sc(Br)cc56)CC4)ccc3C2=O)C(=O)N1` [GT-08063, 1-(5-((4-(6-bromothieno[2,3-d]pyrimidin-4-yl)piperazin-1-yl)methyl)-1-oxoisoindolin-2-yl)dihydropyrimidine-2,4(1H,3H)-dione]: at CK1α, the “CK1α substrate protein remaining %” value was “B (80%< substrate protein remaining % ≤100%)”. Also, at WEE1, the “WEE1 substrate protein remaining %” value is recorded as “B (80%< substrate protein remaining % ≤100%)”. The “IKZF3 substrate protein remaining %” value at IKZF3 is reported as “A (0% ≤ substrate protein remaining % ≤80%)”. Moreover, the “IKZF2 substrate protein remaining %” value on IKZF2 is given as “A (0% ≤ substrate protein remaining % ≤80%)”. In addition, at GSPT1, the “GSPT1 substrate protein remaining %” value is recorded as “B (80%< substrate protein remaining % ≤100%)”. Besides, the “IKZF1 substrate protein remaining %” value on IKZF1 is “B (80%< substrate protein remaining % ≤100%)”.
As for `O=C1CCN(N2Cc3cc(CN4CCN(c5ncnc6sc(-c7ccccc7)cc56)CC4)ccc3C2=O)C(=O)N1` [GT-08064, 1-(1-oxo-5-((4-(6-phenylthieno[2,3-d]pyrimidin-4-yl)piperazin-1-yl)methyl)isoindolin-2-yl)dihydropyrimidine-2,4(1H,3H)-dione], on CK1α, the “CK1α substrate protein remaining %” value is reported as “B (80%< substrate protein remaining % ≤100%)”. In addition, the “WEE1 substrate protein remaining %” value at WEE1 is recorded as “B (80%< substrate protein remaining % ≤100%)”. On IKZF3, the “IKZF3 substrate protein remaining %” value is reported as “B (80%< substrate protein remaining % ≤100%)”. The “IKZF2 substrate protein remaining %” value on IKZF2 is on record as “A (0% ≤ substrate protein remaining % ≤80%)”. Further, the “GSPT1 substrate protein remaining %” value at GSPT1 is listed as “B (80%< substrate protein remaining % ≤100%)”. Besides, the “IKZF1 substrate protein remaining %” value at IKZF1 is “B (80%< substrate protein remaining % ≤100%)”.
For `O=C1CCN(N2Cc3cc(CN4CCN(c5ncnc6scc(-c7ccccc7)c56)CC4)ccc3C2=O)C(=O)N1` [GT-08065, 1-(1-oxo-5-((4-(5-phenylthieno[2,3-d]pyrimidin-4-yl)piperazin-1-yl)methyl)isoindolin-2-yl)dihydropyrimidine-2,4(1H,3H)-dione], on CK1α, the “CK1α substrate protein remaining %” value is on record as “B (80%< substrate protein remaining % ≤100%)”. Moreover, on WEE1, the “WEE1 substrate protein remaining %” value was “B (80%< substrate protein remaining % ≤100%)”. For the same compound, on IKZF3, the “IKZF3 substrate protein remaining %” value is given as “B (80%< substrate protein remaining % ≤100%)”. Besides, the “IKZF2 substrate protein remaining %” value at IKZF2 was “A (0% ≤ substrate protein remaining % ≤80%)”. Further, the “GSPT1 substrate protein remaining %” value on GSPT1 is given as “B (80%< substrate protein remaining % ≤100%)”. Further, the “IKZF1 substrate protein remaining %” value on IKZF1 was “B (80%< substrate protein remaining % ≤100%)”.
Turning to `Cc1nc(N2CCN(Cc3ccc4c(c3)CN(N3CCC(=O)NC3=O)C4=O)CC2)c2c(-c3ccccc3)csc2n1` [GT-08066, 1-(5-((4-(2-methyl-5-phenylthieno[2,3-d]pyrimidin-4-yl)piperazin-1-yl)methyl)-1-oxoisoindolin-2-yl)dihydropyrimidine-2,4(1H,3H)-dione], the “CK1α substrate protein remaining %” value at CK1α is “A (0% ≤ substrate protein remaining % ≤80%)”. For the same compound, the “WEE1 substrate protein remaining %” value on WEE1 is reported as “B (80%< substrate protein remaining % ≤100%)”. Moreover, the “IKZF3 substrate protein remaining %” value at IKZF3 is on record as “B (80%< substrate protein remaining % ≤100%)”. Moreover, the “IKZF2 substrate protein remaining %” value on IKZF2 is listed as “A (0% ≤ substrate protein remaining % ≤80%)”. The “GSPT1 substrate protein remaining %” value at GSPT1 is listed as “B (80%< substrate protein remaining % ≤100%)”. For the same compound, the “IKZF1 substrate protein remaining %” value on IKZF1 is given as “B (80%< substrate protein remaining % ≤100%)”.
For `Cc1nc(N2CCN(Cc3ccc4c(c3)CN(N3CCC(=O)NC3=O)C4=O)CC2)c2ccsc2n1` [GT-08067, 1-(5-((4-(2-methylthieno[2,3-d]pyrimidin-4-yl)piperazin-1-yl)methyl)-1-oxoisoindolin-2-yl)dihydropyrimidine-2,4(1H,3H)-dione], the “CK1α substrate protein remaining %” value at CK1α is “B (80%< substrate protein remaining % ≤100%)”. At WEE1, the “WEE1 substrate protein remaining %” value is listed as “B (80%< substrate protein remaining % ≤100%)”. Moreover, at IKZF3, the “IKZF3 substrate protein remaining %” value was “B (80%< substrate protein remaining % ≤100%)”. In addition, on IKZF2, the “IKZF2 substrate protein remaining %” value was “A (0% ≤ substrate protein remaining % ≤80%)”. Besides, the “GSPT1 substrate protein remaining %” value at GSPT1 is recorded as “B (80%< substrate protein remaining % ≤100%)”. In addition, the “IKZF1 substrate protein remaining %” value on IKZF1 is listed as “B (80%< substrate protein remaining % ≤100%)”.
